Laboratory results taken from publication PMC3252867, “Marilones A–C, phthalides from the sponge-derived fungus Stachylidium sp” (Beilstein Journal of Organic Chemistry, 2011).
Like-named read-outs stand apart in the source and are kept apart here.

Experiments:
Assay in all cases: cells
Parameters in all cases: antiproliferative activity in human cancer cell lines, growth inhibition corrected for starting population (GI50)
Conditions in all cases: Homo sapiens
[1] = system: SF268
[2] = system: MCF7
[3] = system: NCI-H460

In the case of `COc1c(C)c(OC/C=C(\C)CCC=C(C)C)cc2c1C(=O)O[C@H]2C` (racemic) [compound 1, Marilone A], the GI50 ([1]; SF-268, read-out: GI50 (1)) is reported as 38.4 µM, the GI50 ([2]; MCF7, read-out: GI50 (1)) is reported as 28.8 µM and the GI50 ([3]; NCI-H460, read-out: GI50 (1)) is reported as 42.9 µM.

With `COc1cc([C@@H]2c3cc4c(cc3[C@@H](O[C@@H]3O[C@@H]5CO[C@@H](C)O[C@H]5[C@H](O)[C@H]3O)[C@H]3COC(=O)[C@H]23)OCO4)cc(OC)c1O` [Etoposide] the GI50 ([1]; SF-268, read-out: GI50 Etoposide) was 7.7 µM, the GI50 ([2]; MCF7, read-out: GI50 Etoposide) was 22.8 µM and the GI50 ([3]; NCI-H460, read-out: GI50 Etoposide) was 0.4 µM.

`COc1c(C)c(OC/C=C(\C)CCC=C(C)C)cc2c1COC2=O` [compound 3, Marilone C] showed a GI50 ([1]; SF-268, read-out: GI50 (3)) of 28.9 µM, a GI50 ([2]; MCF7, read-out: GI50 (3)) of 20 µM and a GI50 ([3]; NCI-H460, read-out: GI50 (3)) of 31 µM.
